Data reported in paper PMC7139804 (2020).

What was measured:
[1] = test system: CPG-cmyc (DNA, G4) TGGGGAGGGTGGGGAGGGTGGGGAAGGTGGGGA; test: G4-CPG affinity chromatography; details: 50 mM KCl; washing solution with 10% DMSO, 10% ethanol; oligonucleotide on CPG; errors within ± 2%
[2] = test system: CPG-ds27 (DNA, hairpin) CGCGAATTCGCGTTTCGCGAATTCGCG; test: G4-CPG affinity chromatography; details: 50 mM KCl; washing solution with 10% DMSO, 10% ethanol; oligonucleotide on CPG; errors within ± 2%
[3] = test system: CPG-tel26 (DNA, G4) TTAGGGTTAGGGTTAGGGTTAGGGTT; test: G4-CPG affinity chromatography; details: 50 mM KCl; washing solution with 10% DMSO, 10% ethanol; oligonucleotide on CPG; errors within ± 2%
[4] = test system: cmyc (DNA, G4) TGGGGAGGGTGGGGAGGGTGGGGAAGGTGGGGA; test: fluorescence titration and Job plot; details: 20 mM KCl, 5 mM KH2PO4; 10% DMSO, pH 7, 20 °C; 2 µM ligand, DNA up to 10 µM; no tight binding
[5] = test system: ds27 (DNA, hairpin) CGCGAATTCGCGTTTCGCGAATTCGCG; test: fluorescence titration and Job plot; details: 20 mM KCl, 5 mM KH2PO4; 10% DMSO, pH 7, 20 °C; 2 µM ligand, DNA up to 10 µM; no tight binding
[6] = test system: tel26 (DNA, G4) TTAGGGTTAGGGTTAGGGTTAGGGTT; test: fluorescence titration and Job plot; details: 20 mM KCl, 5 mM KH2PO4; 10% DMSO, pH 7, 20 °C; 2 µM ligand, DNA up to 10 µM; no tight binding
[7] = test system: ds27 (DNA, hairpin) CGCGAATTCGCGTTTCGCGAATTCGCG; test: fluorescence titration, independent equivalent-sites fit; details: 20 mM KCl, 5 mM KH2PO4, 10% DMSO, pH 7, 20 °C, 2 µM ligand
[8] = test system: cmyc (DNA, G4) TGGGGAGGGTGGGGAGGGTGGGGAAGGTGGGGA; test: as above; details: 20 mM KCl, 5 mM KH2PO4, 10% DMSO, pH 7, 20 °C, 2 µM ligand
[9] = test system: tel26 (DNA, G4) TTAGGGTTAGGGTTAGGGTTAGGGTT; test: as above; details: 20 mM KCl, 5 mM KH2PO4, 10% DMSO, pH 7, 20 °C, 2 µM ligand
[10] = test system: tel26 (DNA, G4) TTAGGGTTAGGGTTAGGGTTAGGGTT; test: CD melting at 290 nm; details: 20 mM KCl, 5 mM KH2PO4; 10% DMSO, pH 7; 2 µM DNA, 12 µM compound (1:6)

Bound Ligand (%) [1]	Bound Ligand (%) [2]	Bound Ligand (%) [3]	Compound	also measured
–	41%	97%	CN(C)CCCN1C(=O)c2ccc3c4c(c(NCCOCCOCCN)cc(c24)C1=O)C(=O)N(CCCN(C)C)C3=O	–
87%	71%	90%	CN(C)CCCNc1cc2c3c(c(NCCOCCOCCNc4cc5c6c(ccc7c6c4C(=O)N(CCCCCC(=O)O)C7=O)C(=O)N(CCCCCC(=O)O)C5=O)cc4c3c1C(=O)N(CCCN(C)C)C4=O)C(=O)N(CCCN(C)C)C2=O	–
79%	34%	85%	CN(C)CCCN1C(=O)c2ccc3c4c(c(NCCOCCOCCNc5cc6c7c(ccc8c7c5C(=O)N(CCCCCC(=O)O)C8=O)C(=O)N(CCCCCC(=O)O)C6=O)cc(c24)C1=O)C(=O)N(CCCN(C)C)C3=O	–
–	38%	73%	CN(C)CCCN1C(=O)c2cc(NCCOCCOCCNc3cc4c5c(c(Br)cc6c5c3C(=O)N(CCCCCC(=O)O)C6=O)C(=O)N(CCCCCC(=O)O)C4=O)c3c4c(cc(Br)c(c24)C1=O)C(=O)N(CCCN(C)C)C3=O	–

The remaining lines, values behind:

Compound	Bound Ligand (%) [1]	Bound Ligand (%) [2]	Bound Ligand (%) [3]	also measured
CN(C)CCCN1C(=O)c2cc(NCCOCCOCCNc3cc4c5c(ccc6c5c3C(=O)N(CCCCCC(=O)O)C6=O)C(=O)N(CCCCCC(=O)O)C4=O)c3c4c(cc(Br)c(c24)C1=O)C(=O)N(CCCN(C)C)C3=O	64%	29%	67%	–
CN(C)CCCN1C(=O)c2ccc3c4c(c(NCCOCCOCCNc5cc6c7c(c(Br)cc8c7c5C(=O)N(CCCCCC(=O)O)C8=O)C(=O)N(CCCCCC(=O)O)C6=O)cc(c24)C1=O)C(=O)N(CCCN(C)C)C3=O	79%	33%	68%	binding [4]: weak; binding [5]: weak; binding [6]: weak
CCCNc1cc2c3c(c(NCCCN(C)C)cc4c3c1C(=O)N(CCCN(C)C)C4=O)C(=O)N(CCCN(C)C)C2=O	–	46%	92%	–
CN(C)CCCN1C(=O)c2ccc3c4c(c(NCCCCCCCNc5cc6c7c(ccc8c7c5C(=O)N(CCCCCC(=O)O)C8=O)C(=O)N(CCCCCC(=O)O)C6=O)cc(c24)C1=O)C(=O)N(CCCN(C)C)C3=O	–	61%	77%	–
CN(C)CCCN1C(=O)c2cc(NCCCCCCCNc3cc4c5c(ccc6c5c3C(=O)N(CCCCCC(=O)O)C6=O)C(=O)N(CCCCCC(=O)O)C4=O)c3c4c(cc(Br)c(c24)C1=O)C(=O)N(CCCN(C)C)C3=O	79%	71%	75%	–
CN(C)CCCN1C(=O)c2ccc3c4c(c(NCCOCCO)cc(c24)C1=O)C(=O)N(CCCN(C)C)C3=O	99%	30%	99%	Kb [7]: 1.9 (±0.2) × 10^7 M^−1; Kb [8]: 2.6 (±0.2) × 10^7 M^−1; Kb [9]: 2.4 (±0.1) × 10^7 M^−1; ΔTm [10]: +15 °C
CN(C)CCCN1C(=O)c2ccc3c4c(c(NCCCCCCCN)cc(c24)C1=O)C(=O)N(CCCN(C)C)C3=O	97%	48%	100%	–
CCCNc1cc2c3c(ccc4c3c1C(=O)N(CCCN(C)C)C4=O)C(=O)N(CCCN(C)C)C2=O	95%	50%	85%	–
